One data set deals with Bacillus subtilis. Kind of data set: Bacterial minimal inhibiting concentration (MIC) in liquid culture, turbidity evaluation. It is filed as cell-based. The conditions noted are these: strain A: Bacillus subtilis; Caso Peptone Bouillon, 24 hours at 30 °C; tested at 10, 30, 60 and 100 mg/l.
The next data set relates to Serratia marcescens. Described as above. It is filed as cell-based. The note with it: strain B: Serratia marcescens; Caso Peptone Bouillon, 24 hours at 30 °C; tested at 10, 30, 60 and 100 mg/l.
The subject of another data set is Enterobacter aerogenes. Described as above. It is filed as cell-based. The conditions noted are these: strain C: Enterobacter aerogenes, Caso Peptone Bouillon, 24 hours at 30 °C, tested at 10, 30, 60 and 100 mg/l.
Another data set relates to Alcaligenes dentrificans. The description is as above. The conditions noted are these: strain D: Alcaligenes dentrificans; Caso Peptone Bouillon, 24 hours at 30 °C; tested at 10, 30, 60 and 100 mg/l. It is filed as cell-based.
In the next data set the test system is Proteus vulgaris. The description is as above. It is filed as cell-based. The conditions noted are these: strain E: Proteus vulgaris; Caso Peptone Bouillon, 24 hours at 30 °C; tested at 10, 30, 60 and 100 mg/l.
Another data set deals with Pseudomonas fluorescens. The data set is described as above. It is filed as cell-based. The note with it: strain F: Pseudomonas fluorescens; Caso Peptone Bouillon, 24 hours at 30 °C; tested at 10, 30, 60 and 100 mg/l.
Another data set deals with bacterial mixed culture. It is filed as cell-based. The note with it: 24 hours at 30 °C in Tyrode solution, growth on Caso Peptone plates; for Effect after 24 h 10: 10 mg/l; for Effect after 24 h 30: 30 mg/l; for Effect after 24 h 60: 60 mg/l.
The nature of data set [1]: Solubility of the isolated product (water, alcohol). It is filed as physicochemical.

We go through 9 compounds from patent EP0549006A2, “Ammonium and phosphonium salts and their use as biocides” (FMC CORPORATION (UK) LIMITED, priority 1991, dated 1993).

Broadly, the MIC is the lowest concentration that inhibits growth of the organism. A low value points to greater potency. One may read the solubility as the dissolved amount per volume that the medium holds. High values mean a readily soluble substance, low ones a poorly soluble substance.

Bounds are passed on as bounds.

In the case of “[(n-C4H9)3P n-C14H29]^+(ICIBr]^- [Example 9]”, the “minimal inhibiting concentration A” value with Bacillus subtilis worked out at 10 µg/mL. For the same compound, in the data set on Serratia marcescens, the “minimal inhibiting concentration B” value worked out at 30 µg/mL. Besides, the “minimal inhibiting concentration C” value with Enterobacter aerogenes amounted to 30 µg/mL. In the data set with Alcaligenes dentrificans, the “minimal inhibiting concentration D” value came out at 10 µg/mL. Moreover, the “minimal inhibiting concentration E” value in the data set on Proteus vulgaris was 10 µg/mL. The “minimal inhibiting concentration F” value with Pseudomonas fluorescens worked out at 30 µg/mL. In the data set with bacterial mixed culture, the “Effect after 24 h 10” value was “-”, the “Effect after 24 h 30” value is reported as “-” and the “Effect after 24 h 60” value is reported as “-”.
Take `CCCCCCCCCCCCCC[P+](CCCC)(CCCC)CCCC` [Example 3, [(n-C4H9)3P n-C14H29]^+NO3^-]: in the data set on Bacillus subtilis, the “minimal inhibiting concentration A” value worked out at 10 µg/mL. In addition, in the data set on Serratia marcescens, the “minimal inhibiting concentration B” value was 30 µg/mL. Further, the “minimal inhibiting concentration C” value with Enterobacter aerogenes came to 10 µg/mL. In the data set with Alcaligenes dentrificans, the “minimal inhibiting concentration D” value was found to be 10 µg/mL. Moreover, the “minimal inhibiting concentration E” value in the data set on Proteus vulgaris worked out at 10 µg/mL. Further, in the data set on Pseudomonas fluorescens, the “minimal inhibiting concentration F” value was found to be 30 µg/mL. Besides, in the data set with bacterial mixed culture, the “Effect after 24 h 10” value is “(-) (1-10 colonies, bacteria killed for the most part)”; the “Effect after 24 h 30” value is on record as “(-) (1-10 colonies, bacteria killed for the most part)”; the “Effect after 24 h 60” value is “-”; the “Effect after 24 h 100 mg/l” value is “-”. Also, the “solubility in alcohol” value in data set [1] (alcohol) is “readily soluble in alcohol”. Besides, the “solubility in water” value in data set [1] is “difficultly soluble in water”.
For the compound `CCCCCCCCCCCCCC[N+](C)(C)Cc1ccccc1` [Example 5, [(CH3)2N(CH2C6H5)n-C14H29]^+[S2P(O^iC3H7)2]^-], the MIC against Bacillus subtilis is less than 100 µg/mL; in the data set with Serratia marcescens, less than 100 µg/mL; against Enterobacter aerogenes (Klebsiella aerogenes, 24 h), less than 100 µg/mL; in the data set with Alcaligenes dentrificans, less than 100 µg/mL; in the data set on Proteus vulgaris it was less than 100 µg/mL; in the data set with Pseudomonas fluorescens, less than 100 µg/mL. In addition, in the data set on bacterial mixed culture, the “Effect after 24 h 30” value is recorded as “(-) (1-10 colonies, bacteria killed for the most part)”. The “Effect after 24 h 60” value with bacterial mixed culture is given as “-”. In addition, the “Effect after 24 h 100 mg/l” value in the data set with bacterial mixed culture is reported as “-”. The “solubility in water” value in data set [1] is recorded as “difficultly soluble in water”.
Turning to “[(CH3)2N(CH2C6H5) n-C14H29]3^+[Fe(CN)6]^3- [Example 4]”, the “minimal inhibiting concentration A” value with Bacillus subtilis is less than 100 µg/mL. The “minimal inhibiting concentration B” value in the data set with Serratia marcescens was less than 100 µg/mL. Besides, the “minimal inhibiting concentration C” value with Enterobacter aerogenes was less than 100 µg/mL. In the data set with Alcaligenes dentrificans, the “minimal inhibiting concentration D” value was less than 100 µg/mL. Besides, the “minimal inhibiting concentration E” value in the data set with Proteus vulgaris is less than 100 µg/mL. Further, in the data set with Pseudomonas fluorescens, the “minimal inhibiting concentration F” value is less than 100 µg/mL.
On to “[(n-C4H9)3P n-C, 4H29]^+[ICI2]^- [Example 8]”, for which, in the data set with Bacillus subtilis, the “minimal inhibiting concentration A” value was 10 µg/mL. Besides, the “minimal inhibiting concentration B” value in the data set on Serratia marcescens stood at 30 µg/mL. The “minimal inhibiting concentration C” value in the data set with Enterobacter aerogenes stood at 30 µg/mL. Further, in the data set with Alcaligenes dentrificans, the “minimal inhibiting concentration D” value is 10 µg/mL. Moreover, the “minimal inhibiting concentration E” value with Proteus vulgaris stood at 10 µg/mL. Also, the “minimal inhibiting concentration F” value with Pseudomonas fluorescens was 30 µg/mL. Besides, in the data set on bacterial mixed culture, the “Effect after 24 h 10” value is given as “-”, the “Effect after 24 h 30” value is reported as “-” and the “Effect after 24 h 60” value is recorded as “-”.
`CCCCCCCCCCCCCC[P+](CCCC)(CCCC)CCCC` [Example 2, [(n-C4H9)3P n-C14H29]^+HSO4-]: the minimum inhibitory concentration (MIC) in the data set with Bacillus subtilis was determined as 10 µg/mL; in the data set with Serratia marcescens, 30 µg/mL; against Alcaligenes dentrificans, 10 µg/mL; against Proteus vulgaris, 10 µg/mL; against Pseudomonas fluorescens it was 30 µg/mL. Besides, the “minimal inhibiting concentration C” value with Enterobacter aerogenes is 10 µg/mL. For the same compound, the “Effect after 24 h 10” value with bacterial mixed culture is listed as “-”. Further, the “Effect after 24 h 30” value in the data set with bacterial mixed culture was “-”. In the data set on bacterial mixed culture, the “Effect after 24 h 60” value is recorded as “-”. Besides, the “solubility in water” value in data set [1] is recorded as “optionally miscible with water”.
As for “[(n-C4H9)3P n-G14H29]^+SCN^- [Example 1]”, in the data set with Bacillus subtilis, the “minimal inhibiting concentration A” value was found to be 10 µg/mL. Besides, the “minimal inhibiting concentration B” value with Serratia marcescens amounted to 30 µg/mL. Also, the “minimal inhibiting concentration C” value in the data set with Enterobacter aerogenes came to 10 µg/mL. Further, in the data set with Alcaligenes dentrificans, the “minimal inhibiting concentration D” value was 10 µg/mL. The “minimal inhibiting concentration E” value in the data set with Proteus vulgaris turned out to be 10 µg/mL. In addition, the “minimal inhibiting concentration F” value in the data set on Pseudomonas fluorescens is 30 µg/mL. In the data set with bacterial mixed culture, the “Effect after 24 h 10” value is on record as “-”, the “Effect after 24 h 30” value was “-”, the “Effect after 24 h 60” value is recorded as “-” and the “Effect after 24 h 100 mg/l” value is reported as “-”.
Turning to `CCCCCCCCCCCCCC[P+](CCCC)(CCCC)CCCC` [Example 7, [(n-C4H9)3P n-C14H29]^+[lO4]^-], the “minimal inhibiting concentration A” value with Bacillus subtilis was 10 µg/mL. Moreover, the “minimal inhibiting concentration B” value in the data set on Serratia marcescens was determined as 30 µg/mL. Further, the “minimal inhibiting concentration C” value in the data set on Enterobacter aerogenes was 30 µg/mL. In addition, the “minimal inhibiting concentration D” value with Alcaligenes dentrificans was found to be 10 µg/mL. Moreover, the “minimal inhibiting concentration E” value in the data set on Proteus vulgaris is 10 µg/mL. Besides, in the data set with Pseudomonas fluorescens, the “minimal inhibiting concentration F” value amounted to 30 µg/mL. Further, in the data set on bacterial mixed culture, the “Effect after 24 h 10” value is reported as “(-) (1-10 colonies, bacteria killed for the most part)”; the “Effect after 24 h 30” value is reported as “-”; the “Effect after 24 h 60” value is listed as “-”; the “Effect after 24 h 100 mg/l” value is “-”. Besides, the “solubility in water” value in data set [1] is “difficultly soluble in water”.
As to `CCCCCCCCCCCCCC[P+](CCCC)(CCCC)CCCC` [Example 6, ([n-C4H9)3P n-C14H29]^+[B(C6H5)4]^-], in data set [1] (in water), the solubility was not above 20 µg/mL.
